# Values of other authors, collected in US20120100192A1, “LOCAL THERAPEUTIC RELEASE DEVICE” (DEXCEL PHARMA TECHNOLOGIES LTD., priority 2009, published 2012).
# Assays:
# [1] = system: experimentally induced periodontal disease; conditions: Macaca mulatta monkeys
# periodontal disease [2] = conditions: 100 mg/day for two months; standardized radiography, radiopharmaceutical uptake
# periodontal disease [3] = conditions: topical toothpaste, 1% w/w, twice daily for 12 months
# [4] = system: naturally occurring periodontitis; conditions: application for 6-12 months, beagle dogs
# alveolar bone loss = conditions: 24 months, FBP-treated patient group
compound,measurement,setting,value
"CC(C(=O)O)c1ccc(-c2ccccc2)c(F)c1 (centres unmarked) [FBP, flurbiprofen]","Effect on attachment, bleeding on probing and gingival redness",[1],"significant inhibition of attachment, bleeding on probing and gingival redness"
same,Effect on bone metabolism,periodontal disease [2],increased bone metabolism
same,Effect on bone,periodontal disease [3],statistically significant bone gain
same,Effect on alveolar bone loss,[4],inhibited alveolar bone loss
same,Effect on bone loss,alveolar bone loss,reduction in bone loss
